# Test results from patent publication US9809574B2, “Isoindoline or isoquinoline compounds, a process for their preparation and pharmaceutical compositions containing them” (LES LABORATOIRES SERVIER, priority 2013, dated 2017).
# Structures can show the parent of a compound that is named as a salt.
# Assays:
# [1] = tested on: RS4; 11 leukaemia cell line; assay: In vitro cytotoxicity, Microculture Tetrazolium Assay (MTT); type: cell-based; settings: Homo sapiens, 11 cells exposed for 48 hours
# Protocol: The cytotoxicity studies were carried out on the RS4; 11 leukaemia cell line and on H146 small Cell Lung Carcinoma cell line. The cells are distributed onto microplates and exposed to the test compounds for 48 hours. The cell viability is then quantified by a colorimetric assay, the Microculture Tetrazolium Assay (Cancer Res., 1987, 47, 939-942).
# Bcl-2 protein = Bcl-2 protein (histag-Bcl-2, UniProtKB P10415) (Homo sapiens (Human), UniProt P10415); assay: Inhibition of Bcl-2 by the fluorescence polarisation technique; type: binding; settings: fluorescence polarisation test; incubation for 2 hours; read-out: IC50 (nM) Bcl-2 FP
# Sequence of Bcl-2 protein (P10415 whole entry): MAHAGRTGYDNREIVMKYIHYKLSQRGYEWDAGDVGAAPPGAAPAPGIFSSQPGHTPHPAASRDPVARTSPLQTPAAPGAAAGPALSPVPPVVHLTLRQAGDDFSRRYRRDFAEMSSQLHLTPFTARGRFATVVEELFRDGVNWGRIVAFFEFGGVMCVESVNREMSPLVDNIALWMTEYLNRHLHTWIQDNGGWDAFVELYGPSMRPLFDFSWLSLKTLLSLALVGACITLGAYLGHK
# From the text: For partial inhibitors, the percentage fluorescence polarisation inhibition for a given concentration of the test compound is indicated.
SMILES,IC50 [1] [nM],IC50 (Bcl-2 protein) [nM]
"Cc1c(C(=O)N(C)c2ccc(O)cc2)cc(-c2cc3c(cc2C(=O)N2Cc4ccccc4C[C@H]2CN2CCOCC2)CN(C(=O)CCc2ccccc2)CC3)n1C [Example 130, N-(4-Hydroxyphenyl)-N,1,2-trimethyl-5-{7-[(3S)-3-(morpholin-4-ylmethyl)-1,2,3,4-tetrahydroisoquinoline-2-carbonyl]-2-(3-phenylpropanoyl)-1,2,3,4-tetrahydroisoquinolin-6-yl}-1H-pyrrole-3-carboxamide]",36,3.1
"C[C@@H]1Cc2ccccc2CN1C(=O)c1cc2c(cc1-c1cc(C(=O)N(C)c3ccc(O)cc3)c3n1CCCC3)CCN(C(=O)[C@H](C)c1ccccc1)C2 [Example 91, N-(4-Hydroxyphenyl)-N-methyl-3-{7-[(3R)-3-methyl-1,2,3,4-tetrahydroisoquinoline-2-carbonyl]-2-[(2R)-2-phenylpropanoyl]-1,2,3,4-tetrahydroisoquinolin-6-yl}-5,6,7,8-tetrahydroindolizine-1-carboxamide]",73,7
"COc1ccc(CCCN2Cc3cc(C(=O)N4Cc5ccccc5C[C@H]4C)c(-c4cc(C(=O)N(C)c5ccc(O)cc5)c(C)n4C)cc3C2)cc1 [Example 116, N-(4-Hydroxyphenyl)-5-{2-[3-(4-methoxyphenyl)propyl]-6-[(3R)-3-methyl-1,2,3,4-tetrahydroisoquinoline-2-carbonyl]-2,3-dihydro-1H-isoindol-5-yl}-N,1,2-trimethyl-1H-pyrrole-3-carboxamide]",181,21
"C[C@@H]1Cc2ccccc2CN1C(=O)c1cc2c(cc1-c1cc(C(=O)N(C)c3ccc(O)cc3)c3n1CCCC3)CN(C(=O)NC(C)(C)C)C2 [Example 76, N-tert-Butyl-5-{1-[(4-hydroxyphenyl)(methyl)carbamoyl]-5,6,7,8-tetrahydroindolizin-3-yl}-6-[(3R)-3-methyl-1,2,3,4-tetrahydroisoquinoline-2-carbonyl]-2,3-dihydro-1H-isoindole-2-carboxamide]",> 150,24
"CNC(=O)N1Cc2cc(C(=O)N3Cc4ccccc4C[C@H]3C)c(-c3cc(C(=O)N(C)c4ccc(O)cc4)c4n3CCCC4)cc2C1 [Example 55, 5-{1-[(4-Hydroxyphenyl)(methyl)carbamoyl]-5,6,7,8-tetrahydroindolizin-3-yl}-N-methyl-6-[(3R)-3-methyl-1,2,3,4-tetrahydroisoquinoline-2-carbonyl]-2,3-dihydro-1H-isoindole-2-carboxamide]",372,16
"Cc1c(C(=O)N(C)c2ccc(O)cc2)cc(-c2cc3c(cc2C(=O)N2Cc4ccccc4C[C@H]2CN2CCOCC2)CN(C(=O)Oc2ccc4cc[nH]c4c2)CC3)n1C [Example 575, 1H-Indol-6-yl 6-{4-[(4-hydroxyphenyl)(methyl)carbamoyl]-1,5-dimethyl-1H-pyrrol-2-yl}-7-[(3S)-3-(morpholin-4-ylmethyl)-1,2,3,4-tetrahydroisoquinoline-2-carbonyl]-1,2,3,4-tetrahydroisoquinoline-2-carboxylate]",12,6.3
"CCCN(C(=O)c1cc(-c2cc3c(cc2C(=O)N2Cc4ccccc4C[C@H]2CN2CCOCC2)CN(C(=O)Cc2ccccc2)CC3)n(C)c1C)c1ccc(O)cc1 [Example 781, N-(4-Hydroxyphenyl)-1,2-dimethyl-5-{7-[(3S)-3-(morpholin-4-ylmethyl)-1,2,3,4-tetrahydroisoquinoline-2-carbonyl]-2-(2-phenylacetyl)-1,2,3,4-tetrahydroisoquinolin-6-yl}-N-propyl-1H-pyrrole-3-carboxamide]",9.7,2.6
"C[C@@H]1Cc2ccccc2CN1C(=O)c1cc2c(cc1-c1cc(C(=O)N(C)c3ccc(O)cc3)c3n1CCCC3)CCN(C(=O)NC(C)(C)C)C2 [Example 48, N-tert-Butyl-6-{1-[(4-hydroxyphenyl)(methyl)carbamoyl]-5,6,7,8-tetrahydroindolizin-3-yl}-7-[(3R)-3-methyl-1,2,3,4-tetrahydroisoquinoline-2-carbonyl]-1,2,3,4-tetrahydroisoquinoline-2-carboxamide]",40,8.7
"CN(C(=O)c1cc(-c2cc3c(cc2C(=O)N2Cc4ccccc4C[C@H]2CN2CCOCC2)CN(C(=O)Oc2ccc(C(N)=O)cc2)CC3)n2c1CCCC2)c1ccc(O)cc1 [Example 141, 4-Carbamoylphenyl 6-{1-[(4-hydroxyphenyl)(methyl)carbamoyl]-5,6,7,8-tetrahydroindolizin-3-yl}-7-[(3S)-3-(morpholin-4-ylmethyl)-1,2,3,4-tetrahydroisoquinoline-2-carbonyl]-1,2,3,4-tetrahydroisoquinoline-2-carboxylate]",82,5.9
"CN(C(=O)c1cc(-c2cc3c(cc2C(=O)N2Cc4ccccc4C[C@H]2CN2CCOCC2)CN(C(=O)CCc2ccccc2)C3)n2c1CCCC2)c1ccc(O)cc1 [Example 9, N-(4-Hydroxyphenyl)-N-methyl-3-{6-[(3S)-3-(morpholin-4-ylmethyl)-1,2,3,4-tetrahydroisoquinoline-2-carbonyl]-2-(3-phenylpropanoyl)-2,3-dihydro-1H-isoindol-5-yl}-5,6,7,8-tetrahydroindolizine-1-carboxamide hydrochloride]",125,9
"CCS(=O)(=O)N1Cc2cc(C(=O)N3Cc4ccccc4C[C@H]3CN3CCOCC3)c(-c3cc(C(=O)N(C)c4ccc(O)cc4)c4n3CCCC4)cc2C1 [Example 18, 3-[2-(Ethanesulfonyl)-6-[(3S)-3-(morpholin-4-ylmethyl)-1,2,3,4-tetrahydroisoquinoline-2-carbonyl]-2,3-dihydro-1H-isoindol-5-yl]-N-(4-hydroxyphenyl)-N-methyl-5,6,7,8-tetrahydroindolizine-1-carboxamide hydrochloride]",1290,38
"C[C@@H]1Cc2ccccc2CN1C(=O)c1cc2c(cc1-c1cc(C(=O)N(C)c3ccc(O)cc3)c3n1CCCC3)CCN(C(=O)Cc1ccc(CN3CCN(C)CC3)cc1)C2 [Example 113, N-(4-Hydroxyphenyl)-N-methyl-3-{7-[(3R)-3-methyl-1,2,3,4-tetrahydroisoquinoline-2-carbonyl]-2-(2-{4-[(4-methylpiperazin-1-yl)methyl]phenyl}acetyl)-1,2,3,4-tetrahydroisoquinolin-6-yl}-5,6,7,8-tetrahydroindolizine-1-carboxamide]",25,3.6
"CN(C)C(=O)c1ccc(OC(=O)N2CCc3cc(-c4cc(C(=O)N(C)c5ccc(O)cc5)c5n4CCCC5)c(C(=O)N4Cc5ccccc5C[C@H]4CN4CCOCC4)cc3C2)cc1 [Example 142, 4-(Dimethylcarbamoyl)phenyl 6-{1-[(4-hydroxyphenyl)(methyl)carbamoyl]-5,6,7,8-tetrahydroindolizin-3-yl}-7-[(3S)-3-(morpholin-4-ylmethyl)-1,2,3,4-tetrahydroisoquinoline-2-carbonyl]-1,2,3,4-tetrahydroisoquinoline-2-carboxylate]",53,5.5
"Cc1c(C(=O)N(C)c2ccccc2)cc(-c2cc3c(cc2C(=O)N2Cc4ccccc4C[C@H]2C)CN(C(=O)Oc2ccc(C#N)cc2)CC3)n1C [Example 786, 4-Cyanophenyl 6-{1,5-dimethyl-4-[methyl(phenyl)carbamoyl]-1H-pyrrol-2-yl}-7-[(3R)-3-methyl-1,2,3,4-tetrahydroisoquinoline-2-carbonyl]-1,2,3,4-tetrahydroisoquinoline-2-carboxylate]",24,8.4
"C[C@@H]1Cc2ccccc2CN1C(=O)c1cc2c(cc1-c1cc(C(=O)N(C)c3ccc(O)cc3)c3n1CCCC3)CCN(C(=O)OCc1ccccc1)C2 [Example 93, Benzyl 6-{1-[(4-hydroxyphenyl)(methyl)carbamoyl]-5,6,7,8-tetrahydroindolizin-3-yl}-7-[(3R)-3-methyl-1,2,3,4-tetrahydroisoquinoline-2-carbonyl]-1,2,3,4-tetrahydroisoquinoline-2-carboxylate]",11,5.1
"Cc1c(C(=O)N(C)c2ccc(O)cc2)cc(-c2cc3c(cc2C(=O)N2Cc4ccccc4C[C@H]2CN2CCOCC2)CN(C(=O)Oc2cccc(C#N)c2)CC3)n1C [Example 560, 3-Cyanophenyl 6-{4-[(4-hydroxyphenyl)(methyl)carbamoyl]-1,5-dimethyl-1H-pyrrol-2-yl}-7-[(3S)-3-(morpholin-4-ylmethyl)-1,2,3,4-tetrahydroisoquinoline-2-carbonyl]-1,2,3,4-tetrahydroisoquinoline-2-carboxylate]",70,8.8
"C[C@@H]1Cc2ccccc2CN1C(=O)c1cc2c(cc1-c1cc(C(=O)N(C)c3ccc(O)cc3)c3n1CCCC3)CN(C(=O)OCc1cnc3[nH]ccc3c1)C2 [Example 64, 1H-pyrrolo[2,3-b]pyridin-5-ylmethyl 5-{1-[(4-hydroxyphenyl)(methyl)carbamoyl]-5,6,7,8-tetrahydroindolizin-3-yl}-6-[(3R)-3-methyl-1,2,3,4-tetrahydroisoquinoline-2-carbonyl]-2,3-dihydro-1H-isoindole-2-carboxylate]",204,27
"CCC(=O)N1CCc2cc(-c3cc(C(=O)N(C)c4ccc(O)cc4)c4n3CCCC4)c(C(=O)N3Cc4ccccc4C[C@H]3C)cc2C1 [Example 34, N-(4-Hydroxyphenyl)-N-methyl-3-{7-[(3R)-3-methyl-1,2,3,4-tetrahydroisoquinoline-2-carbonyl]-2-propanoyl-1,2,3,4-tetrahydroisoquinolin-6-yl}-5,6,7,8-tetrahydroindolizine-1-carboxamide]",19,4.9
"CC(=O)N1Cc2cc(C(=O)N3Cc4ccccc4C[C@H]3C)c(-c3cc(C(=O)N(C)c4ccc(O)cc4)c(C)n3C)cc2C1 [Example 112, 5-{2-Acetyl-6-[(3R)-3-methyl-1,2,3,4-tetrahydroisoquinoline-2-carbonyl]-2,3-dihydro-1H-isoindol-5-yl}-N-(4-hydroxyphenyl)-N,1,2-trimethyl-1H-pyrrole-3-carboxamide]",394,42
